# According to article PMC11255275, “Structural insights into the triple agonism at GLP-1R, GIPR and GCGR manifested by retatrutide” (Cell Discovery, 2024):
# Like-named read-outs stand apart in the source and are kept apart here.
# What was measured:
# [1] = cited from earlier work; for average weight loss: 12 mg dose group
# Description: (§1) The most successful treatments currently available include glucagon-like peptide-1 (GLP-1) receptor agonists (GLP-1RAs), exemplified by semaglutide (approved in 2017, $19.9 billion sales in 2023)[3] and tirzepatide (approved in 2022, $5.3 billion sales in 2023)[4]. […] For humans, events were mild, such as 50 1 ascending (PMID: 4 months ...
# [2] = system: C57/Bl6 diet-induced obese (DIO) mice; settings: cited from earlier work
# Description: as §1
# GCGR mutants [3] = molecular target: T1, GCGR mutants (Homo sapiens, UniProt P47871, E362A); assay: cAMP accumulation, single-point mutated GCGR; type: cell-based; settings: GCGR E362(6.53b)A, HEK-293T, 40 min, TR-FRET, mean ± S.E.M., n at least 3
# T1 construct: expressed in transfected cells; host or cells: HEK-293T
# T1 sequence (P47871 26-477 E362A): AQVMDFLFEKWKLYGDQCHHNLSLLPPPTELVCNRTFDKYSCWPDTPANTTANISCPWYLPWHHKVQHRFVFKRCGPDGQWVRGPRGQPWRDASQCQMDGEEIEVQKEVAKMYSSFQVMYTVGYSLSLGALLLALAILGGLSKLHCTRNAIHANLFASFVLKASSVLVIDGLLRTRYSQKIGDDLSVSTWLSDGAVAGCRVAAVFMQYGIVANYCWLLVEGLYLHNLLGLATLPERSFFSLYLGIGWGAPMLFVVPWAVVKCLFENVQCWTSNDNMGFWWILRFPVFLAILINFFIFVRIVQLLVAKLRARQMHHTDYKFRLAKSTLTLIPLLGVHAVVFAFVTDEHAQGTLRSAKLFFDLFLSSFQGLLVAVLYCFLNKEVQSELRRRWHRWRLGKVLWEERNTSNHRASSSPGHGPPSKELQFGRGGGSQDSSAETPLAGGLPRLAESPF
# Protocol: (§2) HEK-293T cells were maintained at 37°C in 5% CO2 incubator and seeded onto 6-well cell […]
# (§3) culture plates before transfection. After overnight culture, the cells were transiently transfected […]
# (§4) with various constructs using Lipofectamine 2000 transfection reagent (Invitrogen). After 24 h, […]
# (§5) the transfected cells were seeded onto 384-microtiter plates at a density of 3,000 cells per well […]
# (§6) in stimulation buffer (HBSS supplemented with 5 mM HEPES, 0.1% (w/v) casein and 0.5 mM […]
# (§7) 3-isobutyl-1-methylxanthine). Different concentrations of retatrutide in stimulation buffer were […]
# (§8) added, and the stimulation lasted for 40 min. The reaction was stopped by addition of cAMP […]
# (§9) detection buffer containing Eu-cAMP tracer and ULight-anti-cAMP. Plates were then incubated for […]
# (§10) 60 min at RT. Time-resolved FRET signals were measured at 620 nm and 665 nm, respectively, by […]
# (§11) an EnVision multilabel plate reader (PerkinElmer). Data were analyzed in GraphPad PRISM 9.5 […]
# (§12) and all values were normalized to that of the wild-type (WT).
# (§13) Supplementary Fig. 5 Effects of receptor mutation on retatrutide-induced cAMP […]
# (§14) accumulation. a-c, Signaling profiles of GLP-1R (a), GIPR (b) and GCGR (c) mutants. cAMP […]
# (§15) accumulation was measured in wild-type (WT) and single-point mutated GLP-1R, GIPR or […]
# (§16) GCGR expressing HEK-293T cells. cAMP levels were normalized to the maximum response […]
# (§17) of the WT and dose-response curves were analyzed using a three-parameter logistic equation.
# (§18) Data were generated and graphed as means ± S.E.M. of at least three independent experiments performed in quadruplicate.
# (§19) (1 picture or pasted object on this page, not shown here)
# (§20) Supplementary Ta b l e S 5 Effects of the ligand-binding pocket residue mutation on retatrutide- […]
# (§21) induced cAMP signaling at GLP-1R, GIPR or GCGR. […]
# (§22) cAMP levels were normalized to the maximum response of the wild-type (WT) and dose-response […]
# (§23) curves were analyzed using a three-parameter logistic equation to obtain pEC50 and Emax values. The […]
# (§24) experiments were carried out independently at least three times. Data shown are means ± S.E.M. One- […]
# (§25) way ANOVA was used to determine statistical difference. N.D., values that could not be determined due […]
# (§26) to incomplete curve fits. *P< 0.05, **P< 0.01, ***P< 0.001 and ****P<0.0001.
# GCGR mutants [4] = molecular target: T2, GCGR mutants (Homo sapiens, UniProt P47871, I194K); assay: cAMP accumulation, single-point mutated GCGR; type: cell-based; settings: GCGR I194(2.67b)K, HEK-293T, 40 min, TR-FRET, mean ± S.E.M., n at least 3
# T2 construct: expressed in transfected cells; host or cells: HEK-293T
# T2 sequence (P47871 26-477 I194K): as the sequence (P47871 26-477 E362A) above, with I169K, A337E counted along it
# Protocol: as §2, §3, §4, §5, §6, §7, §8, §9, §10, §11, §12, §13, §14, §15, §16, §17, §18, §19, §20, §21, §22, §23, §24, §25, §26
# GCGR mutants [5] = molecular target: T3, GCGR mutants (Homo sapiens, UniProt P47871, Y138L); assay: cAMP accumulation, single-point mutated GCGR; type: cell-based; settings: GCGR Y138(1.36b)L, HEK-293T, 40 min, TR-FRET, mean ± S.E.M., n at least 3
# T3 construct: expressed in transfected cells; host or cells: HEK-293T
# T3 sequence (P47871 26-477 Y138L): as the sequence (P47871 26-477 E362A) above, with Y113L, A337E counted along it
# Protocol: as §2, §3, §4, §5, §6, §7, §8, §9, §10, §11, §12, §13, §14, §15, §16, §17, §18, §19, §20, §21, §22, §23, §24, §25, §26
# GCGR = molecular target: T4, GCGR (Homo sapiens, UniProt P47871); assay: cAMP accumulation, wild-type GCGR; type: cell-based; settings: HEK-293T, 40 min, TR-FRET, mean ± S.E.M.
# T4 construct: expressed in transfected cells; host or cells: HEK-293T
# T4 sequence (P47871 26-477): as the sequence (P47871 26-477 E362A) above, with A337E counted along it
# Protocol: as §2, §3, §4, §5, §6, §7, §8, §9, §10, §11
# and all values were normalized to that of the wild-type (WT). […]
# as §15
# of the WT and dose-response curves were analyzed using a three-parameter logistic equation. […]
# curves were analyzed using a three-parameter logistic equation to obtain pEC50 and Emax values. […]
# as §25
# GLP-1R mutants [6] = molecular target: T5, GLP-1R mutants (Homo sapiens, UniProt P43220, E138R); assay: cAMP accumulation, single-point mutated GLP-1R; type: cell-based; settings: GLP-1R E138(1.33b)R; HEK-293T, 40 min, TR-FRET; mean ± S.E.M., n at least 3
# T5 construct: expressed in transfected cells; host or cells: HEK-293T
# T5 sequence (P43220 24-463 E138R): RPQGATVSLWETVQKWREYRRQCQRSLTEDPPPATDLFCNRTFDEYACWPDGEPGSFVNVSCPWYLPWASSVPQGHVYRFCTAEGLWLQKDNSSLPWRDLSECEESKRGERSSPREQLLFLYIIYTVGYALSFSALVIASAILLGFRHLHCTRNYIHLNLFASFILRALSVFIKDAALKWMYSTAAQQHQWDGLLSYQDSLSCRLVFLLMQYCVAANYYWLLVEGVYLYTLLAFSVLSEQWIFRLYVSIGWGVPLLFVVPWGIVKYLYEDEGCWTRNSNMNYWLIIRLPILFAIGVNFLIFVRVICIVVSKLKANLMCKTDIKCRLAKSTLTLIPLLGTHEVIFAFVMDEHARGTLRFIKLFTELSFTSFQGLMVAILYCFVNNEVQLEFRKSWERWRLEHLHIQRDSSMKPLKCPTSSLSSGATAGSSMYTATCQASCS
# Protocol: as §2, §3, §4, §5, §6, §7, §8, §9, §10, §11, §12, §13, §14, §15, §16, §17, §18, §19, §20, §21, §22, §23, §24, §25, §26
# GLP-1R mutants [7] = molecular target: T6, GLP-1R mutants (Homo sapiens, UniProt P43220, E364A); assay: cAMP accumulation, single-point mutated GLP-1R; type: cell-based; settings: GLP-1R E364(6.53b)A, HEK-293T, 40 min, TR-FRET, mean ± S.E.M., n at least 3
# T6 construct: expressed in transfected cells; host or cells: HEK-293T
# T6 sequence (P43220 24-463 E364A): as the sequence (P43220 24-463 E138R) above, with R115E, E341A counted along it
# Protocol: as §2, §3, §4, §5, §6, §7, §8, §9, §10, §11, §12, §13, §14, §15, §16, §17, §18, §19, §20, §21, §22, §23, §24, §25, §26
# GLP-1R mutants [8] = molecular target: T7, GLP-1R mutants (Homo sapiens, UniProt P43220, R299A); assay: cAMP accumulation, single-point mutated GLP-1R; type: cell-based; settings: GLP-1R R299(ECL2)A, HEK-293T, 40 min, TR-FRET, mean ± S.E.M., n at least 3
# T7 construct: expressed in transfected cells; host or cells: HEK-293T
# T7 sequence (P43220 24-463 R299A): as the sequence (P43220 24-463 E138R) above, with R115E, R276A counted along it
# Protocol: as §2, §3, §4, §5, §6, §7, §8, §9, §10, §11, §12, §13, §14, §15, §16, §17, §18, §19, §20, §21, §22, §23, §24, §25, §26
# GLP-1R mutants [9] = molecular target: T8, GLP-1R mutants (Homo sapiens, UniProt P43220, E387A); assay: cAMP accumulation, single-point mutated GLP-1R; type: cell-based; settings: GLP-1R E387(7.42b)A; HEK-293T, 40 min, TR-FRET; mean ± S.E.M., n at least 3
# T8 construct: expressed in transfected cells; host or cells: HEK-293T
# T8 sequence (P43220 24-463 E387A): as the sequence (P43220 24-463 E138R) above, with R115E, E364A counted along it
# Protocol: as §2, §3, §4, §5, §6, §7, §8, §9, §10, §11, §12, §13, §14, §15, §16, §17, §18, §19, §20, §21, §22, §23, §24, §25, §26
# GLP-1R mutants [10] = assay: cAMP accumulation, single-point mutated GLP-1R; type: cell-based, human; settings: GLP-1R E138(1.33b)R, relative to WT
# Protocol: as §2, §3, §4, §5, §6, §7, §8, §9, §10, §11, §12, §13, §14, §15, §16, §17, §18, §19, §20, §21, §22, §23, §24, §25, §26
# [11] = 12 mg, ref Jastreboff AM et al (supplement ref 19)
# [12] = ref Rosenstock J et al (supplement ref 20)
# [13] = C57/Bl6 DIO mice, ref Coskun T et al (supplement ref 17)
structure (smiles),measurement,setting,value
CC[C@H](C)[C@H](NC(=O)[C@H](Cc1ccccc1)NC(=O)[C@H](C)NC(=O)C(C)(C)NC(=O)[C@H](CCC(N)=O)NC(=O)[C@H](C)NC(=O)[C@H](CCCCNC(=O)COCCOCCNC(=O)CC[C@H](NC(=O)CCCCCCCCCCCCCCCCCCC(=O)O)C(=O)O)NC(=O)[C@H](CCCCN)NC(=O)[C@H](CC(=O)O)NC(=O)[C@H](CC(C)C)NC(=O)[C@](C)(CC(C)C)NC(=O)[C@@H](NC(=O)[C@H](CO)NC(=O)[C@H](Cc1ccc(O)cc1)NC(=O)[C@H](CC(=O)O)NC(=O)[C@H](CO)NC(=O)[C@@H](NC(=O)[C@H](Cc1ccccc1)NC(=O)[C@@H](NC(=O)CNC(=O)[C@H](CCC(N)=O)NC(=O)C(C)(C)NC(=O)[C@@H](N)Cc1ccc(O)cc1)[C@@H](C)O)[C@@H](C)O)[C@@H](C)CC)C(=O)N[C@@H](CCC(=O)O)C(=O)N[C@@H](Cc1ccc(O)cc1)C(=O)N[C@@H](CC(C)C)C(=O)N[C@@H](CC(C)C)C(=O)N[C@@H](CCC(=O)O)C(=O)NCC(=O)NCC(=O)N1CCC[C@H]1C(=O)N[C@@H](CO)C(=O)N[C@@H](CO)C(=O)NCC(=O)N[C@@H](C)C(=O)N1CCC[C@H]1C(=O)N1CCC[C@H]1C(=O)N1CCC[C@H]1C(=O)N[C@@H](CO)C(N)=O [retatrutide],participants with weight reduction of 5% or more,"[1]; 8 mg or 12 mg, ref Jastreboff AM et al (supplement ref 19)",All the participants
same,participants who lost 20% or more of baseline weight,[1]; [11],nearly two thirds
same,participants who lost 25% or more of baseline weight,[1]; [11],nearly half
same,participants who lost 30% or more of baseline weight,[1]; [11],a quarter
same,average weight loss,[1]; 24 weeks,17.5%
same,least-squares mean percentage change in body weight,"[1]; 24 weeks, 12-mg group, placebo –1.6%, ref Jastreboff AM et al (supplement ref 19)",–17.5%
same,least-squares mean percentage change in body weight,"[1]; 24 weeks, combined 4-mg group, placebo –1.6%, ref Jastreboff AM et al (supplement ref 19)",–12.9%
same,least-squares mean percentage change in body weight,"[1]; 24 weeks, combined 8-mg group, placebo –1.6%, ref Jastreboff AM et al (supplement ref 19)",–17.3%
same,participants who lost at least 15% of body weight (up to),"[1]; 36 weeks, ref Rosenstock J et al (supplement ref 20)",Up to 63%
same,average weight loss,[1]; 48 weeks,24.2%
same,least-squares mean percentage change in body weight,"[1]; 48 weeks, 12-mg group, placebo –2.1%, ref Jastreboff AM et al (supplement ref 19)",–24.2%
same,least-squares mean percentage change in body weight,"[1]; 48 weeks, combined 4-mg group, placebo –2.1%, ref Jastreboff AM et al (supplement ref 19)",–17.1%
same,least-squares mean percentage change in body weight,"[1]; 48 weeks, combined 8-mg group, placebo –2.1%, ref Jastreboff AM et al (supplement ref 19)",–22.8%
same,blood pressure,"[1]; dose-dependent, ref Rosenstock J et al (supplement ref 20)",reduction of blood pressure
same,frequency of gastrointestinal events by starting dose,[1]; in vivo,occurred more frequently
same,heart rate,[1]; in vivo,Dose-dependent increases
same,mitigation of gastrointestinal adverse events by lower starting dose,[1]; in vivo,partially mitigated
same,participants with gastrointestinal adverse events,[1]; in vivo,35%
same,safety profile,[1]; in vivo,safety profile comparable to certain approved GLP-1RAs
same,severity of most common (gastrointestinal) adverse events,[1]; in vivo,mild to moderate in severity
same,glycemic control,"[1]; phase 2, type 2 diabetes",significant improvements in glycemic control
same,weight reduction,"[1]; phase 2, type 2 diabetes",substantial weight reduction
same,glycemic control,[1]; [12],clinically improvements in glycemic control
same,non-HDL cholesterol,[1]; [12],reduction
same,reduction of triglycerides,[1]; [12],~ 35%
same,"ED50, body weight reduction",[2]; [13],4.73 nmol/kg
same,body weight and calorie intake,[2]; [13],dose-dependently reduced
same,body weight loss compared with tirzepatide,"[2]; obese mice, due to an increased energy expenditure through GCGR activation",greater body weight losses in obese mice than tirzepatide
same,Emax ± S.E.M. (% WT),GCGR mutants [3],100.39 ± 2.54 % WT
same,EC50,GCGR mutants [3]; ****P < 0.0001,0.0661 nM
same,Emax ± S.E.M. (% WT),GCGR mutants [4],101.55 ± 2.54 % WT
same,EC50,GCGR mutants [4]; ****P < 0.0001,0.263 nM
same,Emax ± S.E.M. (% WT),GCGR mutants [5],100.64 ± 1.39 % WT
same,EC50,GCGR mutants [5]; *P < 0.05,0.00398 nM
same,EC50,"GCGR; GCGR WT, at least 3 independent experiments in quadruplicate",0.00708 nM
same,Emax ± S.E.M. (% WT),GCGR; n at least 3,100.00 ± 1.46 % WT
same,EC50,GLP-1R mutants [6],0.00355 nM
same,Emax ± S.E.M. (% WT),GLP-1R mutants [6],100.84 ± 3.40 % WT
same,Emax ± S.E.M. (% WT),GLP-1R mutants [7],98.84 ± 4.77 % WT
same,EC50,GLP-1R mutants [7]; ***P < 0.001,0.0407 nM
same,Emax ± S.E.M. (% WT),GLP-1R mutants [8],101.97 ± 3.92 % WT
same,EC50,GLP-1R mutants [8]; ***P < 0.001,0.0417 nM
same,EC50,GLP-1R mutants [9],0.00933 nM
same,Emax ± S.E.M. (% WT),GLP-1R mutants [9],100.40 ± 3.44 % WT
same,change of retatrutide potency by mutation,GLP-1R mutants [10],modestly increased
